In patent US8324267B2, “Kinase inhibitors and the use thereof” (Forschungzentrum Karlsruhe GmbH, priority 2001, dated 2012):
Entries after “also recorded” stand apart in the source; their conditions may differ.

What was measured:
Format in all cases: cell-based
[1] = tested on: rat tumor cell lines (ASML, 1AS, G, AT6.1, MTLN3, MTLY, NM081 and MT450); assay: Tumor cell proliferation, 3H-thymidine incorporation; details: 2.5 μM or 10 μM, 24 h, FIG. 4
Procedure: Cells of the rat tumor cell line (Nestl et al., 2001, Cancer Research 61: 1569-1577) were cultivated in the presence of 1% DMSO (solvent control), 2.5 μM or 10 μM of the indolinone for 24 h. Tritiated thymidine was added to the medium during the last 4-6 h of incubation. The cells were harvested and the amount of radioactivity incorporated into the DNA was quantified.
The data are stated in percent relative to the proliferation of the cells treated only with DMSO (% relative to control; see FIG. 4)).
FIG. 4: Measurement of the (^3H)-thymidine incorporation (in %) into rat tumor cell lines (ASML, 1AS, G, AT6.1, MTLN3, MTLY, NM081 and MT450) as a function of the concentration of inhibitors employed. The inhibition of cell proliferation by MAE87, MAE106 and MAZ51 is dose-dependent.

rat carcinoma cell lines = assay: Apoptosis in rat tumor cell lines, nucleosome ELISA; details: 2.5 μM or 10 μM, 24 h, FIG. 6
Procedure: Cells of the rat tumor cell line (Nestl et al., 2001, Cancer Research 61: 1569-1577) were cultivated in the presence of 1% DMSO (solvent control), 2.5 μM or 10 μM of the indolinone for 24 h. Apoptosis was quantified with the aid of anti-DNA peroxidase antibody. The amount of dye produced in the chromogenic reaction catalyzed by the peroxidase was measured by photometry at 405 nm and correlated with the amount of apoptosis-associated cytoplasmic mono- and oligonucleosomes. The data are stated in % apoptosis relative to the cells of the solvent control (% relative to control) (FIG. 6).
FIG. 6: Nucleosome ELISA test (Cell Death Detection ELISA). The extent of dead cells of the respective rat tumor cell line is depicted (apoptosis in %) in relation to the use of the inhibitors MAE87, MAE106 and MAZ51.

[2] = tested on: Human endothelial cells (HDMEC); assay: Apoptosis, Cell Death Detection ELISA (nucleosome ELISA); details: 24 h, FIG. 5
Procedure: Human endothelial cells (HDMEC) and rat pancreatic tumor cells (1AS) were resuspended (10^5 cells/ml). 50 μl of cell suspension were seeded in 96-well cell culture plates and incubated at 37° C. for 24 h. The cells were then incubated with the stated concentrations of the various inhibitors for a further 24 h. The pro-apoptotic effect of the compounds was determined using the Cell Death Detection ELISA^plus kit (Roche Diagnostics GmbH, Mannheim) in accordance with the manufacturer's statements. The kit contains a photometric enzyme immunoassay for qualitative and quantitative in vitro determination of cytoplasmic histone-associated DNA fragments (mono- and oligo-nucleosomes) released through active cell death (apoptosis). […] The measurements relative to the untreated cells are plotted against the inhibitor concentration.
FIG. 5: Nucleosome ELISA test (Cell Death Detection ELISA). The extent of dead cells of the respective cell line is depicted (as relative absorption at 405 nm) in relation to the use of the inhibitors MAE87, MAE106 and MAZ51 and MAZ51-2.

VEGFR-2 = VEGFR-2 (Homo sapiens, UniProt P35968); assay: Ligand-induced autophosphorylation in VEGFR-2-expressing PAE cells (immunoprecipitation, Western blot); details: PAE/VEGFR-2 cells, VEGF stimulated; 0.5, 5 or 50 μM; FIG. 1
Sequence of VEGFR-2 (P35968 20-1356): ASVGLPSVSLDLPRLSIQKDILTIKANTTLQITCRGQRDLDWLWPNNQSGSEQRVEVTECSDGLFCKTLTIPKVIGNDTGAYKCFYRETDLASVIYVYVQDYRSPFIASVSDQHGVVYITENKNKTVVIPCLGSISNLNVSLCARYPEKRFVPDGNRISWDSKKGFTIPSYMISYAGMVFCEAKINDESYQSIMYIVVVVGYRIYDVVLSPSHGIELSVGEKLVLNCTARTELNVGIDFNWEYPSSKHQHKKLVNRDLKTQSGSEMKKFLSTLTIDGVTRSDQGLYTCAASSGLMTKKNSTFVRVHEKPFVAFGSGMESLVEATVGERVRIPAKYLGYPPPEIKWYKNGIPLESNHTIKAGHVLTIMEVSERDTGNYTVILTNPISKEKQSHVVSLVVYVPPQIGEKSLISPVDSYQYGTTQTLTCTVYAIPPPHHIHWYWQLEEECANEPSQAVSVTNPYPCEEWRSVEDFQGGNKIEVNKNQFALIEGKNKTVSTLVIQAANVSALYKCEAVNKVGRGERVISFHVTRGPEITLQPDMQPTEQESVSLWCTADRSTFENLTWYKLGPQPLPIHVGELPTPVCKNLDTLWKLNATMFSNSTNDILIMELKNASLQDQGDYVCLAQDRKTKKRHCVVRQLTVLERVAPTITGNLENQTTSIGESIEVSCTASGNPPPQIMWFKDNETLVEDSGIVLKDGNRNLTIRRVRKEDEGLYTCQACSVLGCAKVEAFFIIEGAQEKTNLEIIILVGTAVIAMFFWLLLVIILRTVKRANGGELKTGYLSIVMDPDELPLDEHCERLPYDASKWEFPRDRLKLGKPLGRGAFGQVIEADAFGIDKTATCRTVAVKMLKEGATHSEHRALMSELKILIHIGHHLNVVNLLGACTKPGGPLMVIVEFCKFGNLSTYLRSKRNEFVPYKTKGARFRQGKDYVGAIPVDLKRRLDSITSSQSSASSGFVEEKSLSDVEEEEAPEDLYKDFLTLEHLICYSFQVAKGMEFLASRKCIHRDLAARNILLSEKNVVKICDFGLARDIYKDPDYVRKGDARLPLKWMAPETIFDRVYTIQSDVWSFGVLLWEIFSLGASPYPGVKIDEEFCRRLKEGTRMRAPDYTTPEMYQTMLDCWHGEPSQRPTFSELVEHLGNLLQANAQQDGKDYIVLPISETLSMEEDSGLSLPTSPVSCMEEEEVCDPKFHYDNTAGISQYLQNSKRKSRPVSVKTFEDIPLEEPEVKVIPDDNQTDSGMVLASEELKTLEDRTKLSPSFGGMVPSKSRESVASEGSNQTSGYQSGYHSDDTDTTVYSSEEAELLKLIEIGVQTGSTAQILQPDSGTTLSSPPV
Procedure: VEGFR-2- and VEGFR-3-expressing PAE cells (pig aorta endothel cells) were incubated with 0.5 μM, 5 μM or 50 μM of the appropriate test compound. The cells were then stimulated with VEGF (VEGFR-2) or VEGF-C (VEGFR-3) or without growth factor as negative control. The cells were harvested after 15 min and immunoprecipitated with VEGFR-2 or VEGFR-3. The immunoprecipitates were blotted after electrophoresis and investigated with anti-phosphotyrosine antibody. The blots were detached and investigated with VEGFR-2 or VEGFR-3 antibody to check the loading.
PAE/VEGFR-2 or PAE/VEGFR-3 were seeded in 15 cm tissue culture tissues and cultivated to 50% confluence. The cells were then starved in serum-free medium (with 0.2% BSA) for 16-24 h (PAE/VEGFR-3) or 72 h […]. After preincubation with 5 ml of 1 mM serum-free medium (1 mM Na3VO4) and various inhibitor concentrations for 30-60 min, the cells were stimulated at 37° C. for 5 min (VEGFR-3) or 8 min (VEGFR-2). The cells were then rapidly washed twice with ice-cold PBS (with 1 mM Na3VO4) and lysed with ice-cold modified RIPA buffer (30 mM Tris-HCl, pH 7.4, 150 mM NaCl, 1 mM EDTA, 0.5% (v/v) Triton X100, 0.5% (w/v) sodium deoxycholate, 10 mM NaF) freshly prepared with 1 mM PMSF, 0.1 U/ml aprotinin, 10 ng/ml leupeptin and 5 mM Na3VO4. The cells were harvested from the plate with the aid of a rubber policeman and collected in centrifuge tubes on ice. The lysates were solubilized by forcing through a syringe with a 25 G needle, and were centrifuged at 4° C./13 000 rpm for 15 min to remove insoluble constituents.
The clear lysates were incubated with 4 μg of anti-VEGFR-2 (C-1158, Santa Cruz) or […] at 4° C. overnight.
The receptor-antibody complex was precipitated by adding 30 μl of protein A-Sepharose (Amersham)/tube and incubating at 4° C. for a further 2 hours. […]

Row | SMILES | inhibition of tumor cell proliferation (3H-thymidine incorporation, % relative to control) [1] | induction of apoptosis (% relative to solvent control) (rat carcinoma cell lines) | induction of apoptosis (relative absorption at 405 nm) [2] | inhibition of ligand-induced autophosphorylation of VEGFR-2 (VEGFR-2)
1 | CN(C)c1ccc(C=C2C(=O)Nc3ccccc32)c2ccccc12 [MAZ51, 3-(4-Dimethylaminonaphthalen-1-ylmethylene)-1,3-dihydroindol-2-one] | greatest inhibitory effect; also recorded: dose-dependent | most potent apoptosis inducer; also recorded: induce cell death | potent activator of apoptosis | Inhibit the Ligand-Induced Autophosphorylation
2 | O=C1Nc2ccccc2C1=Cc1ccc(O)cc1O [MAE87, 3-(2,4-Dihydroxybenzylidene)-1,3-dihydroindol-2-one] | dose-dependent | induce cell death | Induced Apoptosis | Inhibit the Ligand-Induced Autophosphorylation
3 | COc1ccc(C=C2C(=O)Nc3ccccc32)cc1F [MAE106, 3-(3-Fluoro-4-methoxybenzylidene)-1,3-dihydroindole-2-one] | dose-dependent | induce cell death | Induced Apoptosis | Inhibit the Ligand-Induced Autophosphorylation
